Data set [1] concerns the target T1, Cathepsin G (Homo sapiens, UniProt P08311).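 Note: inhibition of Cathepsin G enzyme activity, tested on an AMC-conjugated peptide substrate; in other assays of this panel Not Active means under 50% inhibition at 10 µM.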
T1 sequence (P08311 whole entry): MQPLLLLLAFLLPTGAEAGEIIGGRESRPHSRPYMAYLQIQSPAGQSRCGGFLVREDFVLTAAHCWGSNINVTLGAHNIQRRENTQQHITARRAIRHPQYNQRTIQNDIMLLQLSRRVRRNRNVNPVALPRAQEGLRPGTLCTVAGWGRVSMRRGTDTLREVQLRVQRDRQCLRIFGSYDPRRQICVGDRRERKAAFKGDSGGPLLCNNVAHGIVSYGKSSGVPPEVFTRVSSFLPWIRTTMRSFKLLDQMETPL
Type of data set: tissue-based. To be noted: neutrophil.

Data set [2] has as its target T2, C-X-C chemokine receptor type 2 (Homo sapiens, UniProt P25025). Note: in other assays of this panel Not Active means under 50% inhibition at 10 µM.
T2 sequence (P25025 whole entry): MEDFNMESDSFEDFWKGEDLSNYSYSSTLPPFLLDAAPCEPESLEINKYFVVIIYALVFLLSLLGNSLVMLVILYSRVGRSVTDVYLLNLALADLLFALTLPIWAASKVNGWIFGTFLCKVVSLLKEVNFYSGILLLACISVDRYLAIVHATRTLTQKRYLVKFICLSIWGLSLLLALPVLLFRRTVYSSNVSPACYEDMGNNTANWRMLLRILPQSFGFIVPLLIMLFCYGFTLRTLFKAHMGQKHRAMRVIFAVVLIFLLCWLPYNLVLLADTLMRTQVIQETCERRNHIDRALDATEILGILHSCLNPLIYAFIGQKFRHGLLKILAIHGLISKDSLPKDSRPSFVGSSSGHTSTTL
It counts as cell membranes, Membrane. To be noted: cho-k1.

Data set [3] deals with Glycine receptor (Rattus norvegicus, UniProt P22771+P24524+P07727+P20781). It counts as cell membranes, Wistar, Spinal cord, Membrane.
Data set [4] can be described thus: DRUGMATRIX: Tumor Necrosis Factor (TNF), Non-Selective radioligand binding (ligand: [125I] TNF-alpha). Type of data set: cell membranes, Membrane. To be noted: u-937; Not Active = under 50% inhibition at 10 µM.
For data set [5], the target named is T3, Neutrophil elastase (Homo sapiens, UniProt P08246).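 Note: inhibition of neutrophil elastase enzyme activity, measured with a p-nitroanilide-linked peptide substrate; in other assays of this panel Not Active means under 50% inhibition at 10 µM.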
T3 sequence (P08246 whole entry): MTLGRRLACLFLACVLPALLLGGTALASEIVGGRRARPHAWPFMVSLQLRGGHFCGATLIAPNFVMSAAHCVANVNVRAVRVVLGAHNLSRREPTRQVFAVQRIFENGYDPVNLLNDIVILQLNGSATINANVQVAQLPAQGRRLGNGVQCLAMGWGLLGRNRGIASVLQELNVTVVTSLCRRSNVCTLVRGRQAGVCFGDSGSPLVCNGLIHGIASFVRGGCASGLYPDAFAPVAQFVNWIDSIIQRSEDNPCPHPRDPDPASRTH
Type of data set: tissue-based.

Data set [6] addresses Cytochrome P450 2E1 (Homo sapiens, UniProt P05181). To be noted: bti-tn-5b1-4.
For data set [7], the target named is T4, Glucocorticoid receptor (Homo sapiens, UniProt P04150). Note: in other assays of this panel Not Active means under 50% inhibition at 10 µM.
T4 sequence (P04150 whole entry): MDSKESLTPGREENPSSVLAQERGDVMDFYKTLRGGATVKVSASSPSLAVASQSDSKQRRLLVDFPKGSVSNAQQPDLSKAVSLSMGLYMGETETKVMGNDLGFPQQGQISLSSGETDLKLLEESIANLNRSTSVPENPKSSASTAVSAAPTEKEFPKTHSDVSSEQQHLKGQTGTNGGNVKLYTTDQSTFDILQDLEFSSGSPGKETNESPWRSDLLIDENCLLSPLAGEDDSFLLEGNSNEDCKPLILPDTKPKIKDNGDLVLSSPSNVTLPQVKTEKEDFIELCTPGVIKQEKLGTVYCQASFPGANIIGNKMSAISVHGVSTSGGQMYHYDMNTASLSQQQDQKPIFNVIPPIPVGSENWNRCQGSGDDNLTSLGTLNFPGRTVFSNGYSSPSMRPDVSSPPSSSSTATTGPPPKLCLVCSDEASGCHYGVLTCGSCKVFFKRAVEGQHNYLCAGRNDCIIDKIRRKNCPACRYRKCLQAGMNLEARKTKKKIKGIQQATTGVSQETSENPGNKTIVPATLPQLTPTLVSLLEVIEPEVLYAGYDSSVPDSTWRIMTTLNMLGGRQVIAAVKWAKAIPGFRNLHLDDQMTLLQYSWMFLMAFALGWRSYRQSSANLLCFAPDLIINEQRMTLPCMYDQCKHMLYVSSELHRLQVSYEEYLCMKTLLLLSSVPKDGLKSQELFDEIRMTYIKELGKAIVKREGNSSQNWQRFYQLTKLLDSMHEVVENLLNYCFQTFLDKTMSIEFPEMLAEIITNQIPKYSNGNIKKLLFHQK
To be noted: hela s3.

For data set [8], the target named is T5, Alpha-1D adrenergic receptor (Homo sapiens, UniProt P25100). Note: in other assays of this panel Not Active means under 50% inhibition at 10 µM.
T5 sequence (P25100 whole entry): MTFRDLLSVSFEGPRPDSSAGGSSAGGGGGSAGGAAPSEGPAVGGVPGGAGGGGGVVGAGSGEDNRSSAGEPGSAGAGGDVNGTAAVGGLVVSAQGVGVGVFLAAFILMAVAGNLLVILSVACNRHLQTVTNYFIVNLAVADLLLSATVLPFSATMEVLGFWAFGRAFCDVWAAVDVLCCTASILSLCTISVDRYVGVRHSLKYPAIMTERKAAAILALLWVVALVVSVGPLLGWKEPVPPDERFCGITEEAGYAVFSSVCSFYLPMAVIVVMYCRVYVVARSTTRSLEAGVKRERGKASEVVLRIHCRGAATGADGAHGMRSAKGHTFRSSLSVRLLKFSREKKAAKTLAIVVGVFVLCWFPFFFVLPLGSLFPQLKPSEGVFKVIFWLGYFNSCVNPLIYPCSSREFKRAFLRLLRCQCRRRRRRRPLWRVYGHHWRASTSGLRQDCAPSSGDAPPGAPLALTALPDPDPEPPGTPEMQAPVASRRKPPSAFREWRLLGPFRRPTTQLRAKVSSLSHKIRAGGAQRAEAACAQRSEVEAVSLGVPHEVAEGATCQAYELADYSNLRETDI
Type of data set: cell membranes, HEK293, Membrane.

Data set [9] concerns the target T6, Leukotriene C4 synthase (Cavia porcellus, UniProt A6XA80).
T6 sequence (A6XA80 whole entry): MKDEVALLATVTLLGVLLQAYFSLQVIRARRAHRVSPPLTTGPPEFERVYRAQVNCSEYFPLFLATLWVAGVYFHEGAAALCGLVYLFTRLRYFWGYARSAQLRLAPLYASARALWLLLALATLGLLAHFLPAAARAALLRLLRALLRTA
It counts as tissue-based, Lung.

Cytochrome P450 2E1, sequence (P05181 whole entry): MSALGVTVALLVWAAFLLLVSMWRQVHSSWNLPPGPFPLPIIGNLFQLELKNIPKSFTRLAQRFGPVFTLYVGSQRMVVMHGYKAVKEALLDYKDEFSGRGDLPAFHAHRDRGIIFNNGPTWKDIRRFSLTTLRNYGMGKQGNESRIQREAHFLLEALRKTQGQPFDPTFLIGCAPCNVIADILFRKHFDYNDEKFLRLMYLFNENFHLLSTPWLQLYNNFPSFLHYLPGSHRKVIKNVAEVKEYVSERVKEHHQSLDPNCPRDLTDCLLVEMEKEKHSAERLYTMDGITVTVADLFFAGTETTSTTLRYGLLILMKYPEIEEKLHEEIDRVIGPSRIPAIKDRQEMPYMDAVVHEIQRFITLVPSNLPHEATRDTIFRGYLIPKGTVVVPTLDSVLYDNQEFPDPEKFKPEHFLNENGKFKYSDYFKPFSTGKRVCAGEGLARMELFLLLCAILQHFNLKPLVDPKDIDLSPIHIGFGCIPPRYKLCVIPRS

For orientation: IC50 means the concentration that gives 50% inhibition. For orientation: Ki means a measure of affinity in units of concentration, obtained from inhibition or displacement. `C[C@@H]1O[C@@H](O[C@H]2C[C@@H](O)[C@]3(CO)[C@H]4[C@H](O)C[C@]5(C)[C@@H](C6=CC(=O)OC6)CC[C@]5(O)[C@@H]4CC[C@]3(O)C2)[C@H](O)[C@H](O)[C@H]1O` [OUABAIN]: the 50% inhibitory concentration (IC50) entry in [1], in data set [2], in data set [3], in [4], in data set [5] and in data set [6] was “Not Active” each time. The half-inhibitory concentration (IC50) result in [7], in data set [8] (hek293) and in [9] was “Not Active” in each case. Moreover, the inhibition constant (Ki) entry in data set [4] and in data set [6] was “Not Active” throughout.
As to `COc1ccnc(C[S+]([O-])c2nc3ccc(OC(F)F)cc3[nH]2)c1OC` (stereo not given) [PANTOPRAZOLE], the half-inhibitory concentration (IC50) result in data set [1], in data set [2], in data set [3], in data set [4], in [5] and in [6] was “Not Active” each time. Moreover, the 50% inhibitory concentration (IC50) entry in data set [7], in data set [8] (hek293) and in [9] was “Not Active” in each case. The inhibition constant (Ki) result in data set [4] and in [6] was “Not Active” throughout.
As for `N=C(N)c1ccc(OCCCCCOc2ccc(C(=N)N)cc2)cc1` [PENTAMIDINE], the half-inhibitory concentration (IC50) entry in data set [1], in data set [2], in data set [3], in data set [4], in [5] and in [6] was “Not Active” each time. For the same molecule, the half-maximal inhibitory concentration (IC50) entry in data set [7], in data set [8] (hek293) and in data set [9] was “Not Active” throughout. Besides, the inhibitory constant (Ki) entry in data set [4] and in data set [6] was “Not Active” throughout.
On to `NNCCc1ccccc1` [PHENELZINE], for which the IC50 result in [1], in data set [2], in data set [3], in data set [4], in data set [5] and in [6] was “Not Active” each time. Further, the concentration for half-maximal inhibition (IC50) result in [7], in [8] (hek293) and in data set [9] was “Not Active” each time. The Ki entry in [4] and in data set [6] was “Not Active” throughout.
Regarding `CCc1ccc(CCOc2ccc(CC3SC(=O)NC3=O)cc2)nc1` (stereo not given) [PIOGLITAZONE], the half-inhibitory concentration (IC50) result in data set [1], in data set [2], in [3], in data set [4], in data set [5] and in data set [6] was “Not Active” each time. The half-inhibitory concentration (IC50) result in data set [7], in [8] (hek293) and in data set [9] was “Not Active” throughout. The Ki result in data set [4] and in [6] was “Not Active” in each case.
Turning to `CCCNC(C)C(=O)Nc1ccccc1C` (stereo not given) [PRILOCAINE], the 50% inhibitory concentration (IC50) entry in [1], in [2], in data set [3], in data set [4], in data set [5] and in data set [6] was “Not Active” in each case. The 50% inhibitory concentration (IC50) result in [7], in data set [8] (hek293) and in [9] was “Not Active” in each case. The Ki entry in data set [4] and in data set [6] was “Not Active” in each case.
`CCN(CC)CCCC(C)Nc1c2ccc(Cl)cc2nc2ccc(OC)cc12` (stereo not given) [QUINACRINE]: the half-inhibitory concentration (IC50) result in data set [1], in data set [2], in [3], in data set [4], in [5] and in [6] was “Not Active” throughout. Moreover, the IC50 result was “Not Active” in data set [7], 2070 nM in [8] (read-out: IC50) and “Not Active” in data set [9]. The inhibitory constant (Ki) entry in data set [4] is “Not Active”; in data set [6], “Not Active”; in [8] (read-out: Ki), 1020 nM.
As to `CC[C@]1(O)C[C@@H]2CN(CCc3c([nH]c4ccccc34)[C@@](C(=O)OC)(c3cc4c(cc3OC)N(C)[C@H]3[C@@](O)(C(N)=O)[C@H](O)[C@]5(CC)C=CCN6CC[C@]43[C@@H]65)C2)C1` [VINDESINE], the concentration for half-maximal inhibition (IC50) entry in data set [1], in data set [2], in data set [3], in [4], in data set [5] and in data set [6] was “Not Active” each time. Also, the IC50 entry in data set [7], in data set [8] (hek293) and in data set [9] was “Not Active” each time. The inhibitory constant (Ki) result in [4] and in data set [6] was “Not Active” each time.
As for COBALTOUS CHLORIDE, the IC50 result in data set [1], in [2], in [3], in [4], in data set [5] and in data set [6] was “Not Active” throughout. For the same molecule, the IC50 entry in data set [7], in [8] (hek293) and in data set [9] was “Not Active” each time. In addition, the inhibition constant Ki result in data set [1], in data set [2], in [3], in data set [4], in data set [5] and in [6] was “Not Active” each time. The Ki result in [7], in data set [8] (hek293) and in [9] was “Not Active” throughout.
With COLISTIN, the IC50 entry in [1], in data set [2], in data set [3], in data set [4], in data set [5] and in data set [6] was “Not Active” each time. For the same molecule, the 50% inhibitory concentration (IC50) result in data set [7], in [8] (hek293) and in [9] was “Not Active” in each case. In addition, the inhibition constant Ki entry in data set [1], in [2], in data set [3], in data set [4], in [5] and in data set [6] was “Not Active” in each case. The Ki result in [7], in data set [8] (hek293) and in data set [9] was “Not Active” in each case.

Source of the values: ChEMBL document CHEMBL1909046, “DrugMatrix in vitro pharmacology data”.
